Consider 3 molecules from patent publication US20180169085A1, “Combination Therapy for Hemorrhagic Injury” (Augusta University Reserch Institute, Inc., priority 2016, published 2018).

Structures are written as SMILES. Entries after “also recorded” stand apart in the source; their conditions may differ.

Test [1] has as its system rats subjected to hemorrhagic injury (HI). The experiment in a line: Survival after hemorrhagic injury without resuscitation. The format is in vivo, rat. The following applies: p<0.05 versus HI+Veh; for survival time: FIG. 4.
Excerpt: Male Sprague Dawley rats (250-350 g) were obtained from Charles River Laboratory (Wilmington, Mass., USA). […] All animals were housed in Augusta University animal facility during the experiments.
The animals were fasted overnight (water allowed ad libitum) prior to the sham or hemorrhagic injury (HI) procedure. […] Femoral vein was cannulated to administer fluids. Surgical sites were bathed with bupivacaine. Sham animals were not subjected to bleeding or resuscitation. Upon awakening, the animals in HI groups were bled rapidly within the first 10 min to a MAP of 40±5 mmHg. The bleeding was continued for 45 min, maintaining the low MAP, until 60% of circulatory blood volume was withdrawn. The animals were maintained in the state of shock by maintaining MAP at 40±5 for another 45 min. During this time not more than 40% of the shed blood volume in the form of Ringer lactate was given to maintain the blood pressure. Resuscitation was performed with Ringer lactate for one hour on animals in the respective groups. Vehicle (dimethyl sulfoxide [DMSO]; 120 μL/mouse) or drug was administered at 10 min from the onset of resuscitation or immediately after shock period when there was no resuscitation.
Rats were subjected to HI and Veh, RSV or SRT1720 administered (n=5-6). (RSV: 10 mg/Kg body weight; SRT1720: 2 mg/Kg body weight.
The test system is the same in test [2]. Nature of the test: Cardiac function (dP/dt) after hemorrhagic injury in rat model. The class given is in vivo. The following applies: RSV treatment vs HI+Veh, n=4-6, p<0.05 vs sham, FIG. 1. From the text:
(§1) Male Sprague Dawley rats (250-350 g) were obtained from Charles River Laboratory (Wilmington, Mass., USA). The experiments performed in this study including surgical procedures were approved by the Institutional Animal Care and Use Committee (IACUC) at Augusta University. All animals were housed in Augusta University animal facility during the experiments. The animals were fasted overnight (water allowed ad libitum) prior to the sham or hemorrhagic injury (HI) procedure. Hemorrhagic procedure was as described before with some modification (Jian, B. et al., Mol. Med., 18:209-14 (2012). The animals were anesthetized with 2.5% isoflurane (Henry Schein, Dublin, Ohio, USA) and were placed on Plexiglas plate in a supine position. Isoflurane was administered in oxygen using an anesthetic vaporizer. Midline laparotomy (5 cm) was performed in both sham and HI animals to induce soft tissue trauma. Incision was closed aseptically in two layers with sutures. Two femoral arteries and one femoral vein were cannulated (PE-50 tubing), one artery was hooked up to a Blood Pressure Analyzer (Digi-Med; Micro-Med Inc., Louisville, Ky., USA) to monitor mean arterial pressure (MAP) and bleeding was performed through the other artery. Femoral vein was cannulated to administer fluids. Surgical sites were bathed with bupivacaine. Sham animals were not subjected to bleeding or resuscitation. […]

For test [3] the test system is unchanged. The experiment in a line: 10-day survival study after hemorrhagic injury with resuscitation. The format is in vivo, rat.
Excerpt: Male Sprague Dawley rats (250-350 g) were obtained from Charles River Laboratory (Wilmington, Mass., USA). The experiments performed in this study including surgical procedures were approved by the Institutional Animal Care and Use Committee (IACUC) at Augusta University. All animals were housed in Augusta University animal facility during the experiments.
as §1, with “The” for “Male Sprague Dawley rats (250-350 g) were obtained from Charles River Laboratory (Wilmington, Mass., USA). The experiments performed in this study including surgical procedures were approved by the Institutional Animal Care and Use Committee (IACUC) at Augusta University. All animals were housed in Augusta University animal facility during the experiments. The”

On to `O=C(Nc1ccccc1-c1cn2c(CN3CCNCC3)csc2n1)c1cnc2ccccc2n1` [SRT1720], for which the survival time entry in test [1] (SRT1720 2 mg/Kg body weight, without resuscitation) was “Prolong Life”.

With `O=C(O)c1cccnc1` [niacin, nicotinic acid], the survival result in test [1] (niacin 1, 5, 10 mg/kg, without resuscitation, all curves, FIG. 6) is “prolonged survival”.

With `Oc1ccc(/C=C/c2cc(O)cc(O)c2)cc1` [resveratrol, 3,5,4-tribydroxystilbene], the survival time entry in test [1] (RSV 10 mg/Kg body weight, absence of resuscitation) is reported as “survived for a significantly longer period of time”. Moreover, the “+dp/dt and −dp/dt” value in test [2] is listed as “restored”. Further, the mean weight gain entry in test [3] (10-day survival study, RSV 10 mg/kg, data not shown) is on record as “significantly improved”. Also, the mortality result in test [3] (10-day survival, RSV 10 mg/kg body weight along with resuscitation fluid, p<0.05, FIG. 3) was “reduce mortality significantly; also recorded: significantly reduced”.
